Laboratory results as given in patent US20170173002A1, “Compositions and Methods for Treating an Infection” (CMPD LICENSING, LLC, priority 2015, published 2017).

Key:
[1] = test system: Corynebacterium jeikeium; test: Expected efficacy of antibiotic agents; conditions: expected efficacy against Corynebacterium jeikeium
[2] = test system: Neisseria meningitidis; test: Expected efficacy of antibiotic agents; conditions: expected efficacy against Neisseria meningitidis
[3] = test system: Haemophilus parainfluenzae; test: Expected efficacy of antibiotic agents; conditions: expected efficacy against Haemophilus parainfluenzae
[4] = test system: Bacteroides fragilis; test: Expected efficacy of antibiotic agents; conditions: expected efficacy against Bacteroides fragilis
[5] = test system: Escherichia coli; test: Expected efficacy of antibiotic agents; conditions: expected efficacy against Escherichia coli
[6] = test system: Haemophilus influenzae; test: Expected efficacy of antibiotic agents; conditions: expected efficacy against Haemophilus influenzae
[7] = test system: Enterococcus faecium; test: Expected efficacy of antibiotic agents; conditions: expected efficacy against Enterococcus faecium
[8] = test system: Citrobacter diversus; test: Expected efficacy of antibiotic agents; conditions: expected efficacy against Citrobacter diversus
[9] = test system: Bartonella bacilliformis; test: Expected efficacy of antibiotic agents; conditions: expected efficacy against Bartonella bacilliformis
[10] = test system: Campylobacter jejuni; test: Expected efficacy of antibiotic agents; conditions: expected efficacy against Campylobacter jejuni
[11] = test system: Francisella tularensis; conditions: expected efficacy against Francisella tularensis
[12] = test system: Shigella flexneri; test: Expected efficacy of antibiotic agents; conditions: expected efficacy against Shigella flexneri
[13] = test system: Klebsiella oxytoca; test: Expected efficacy of antibiotic agents; conditions: expected efficacy against Klebsiella oxytoca
[14] = test system: Citrobacter freundii; test: Expected efficacy of antibiotic agents; conditions: expected efficacy against Citrobacter freundii
[15] = test system: Shigella sonnei; test: Expected efficacy of antibiotic agents; conditions: expected efficacy against Shigella sonnei
[16] = test system: Vibrio cholerae; test: Expected efficacy of antibiotic agents; conditions: expected efficacy against Vibrio cholerae
[17] = test system: Pseudomonas fluorescens; test: Expected efficacy of antibiotic agents; conditions: expected efficacy against Pseudomonas fluorescens
[18] = test system: Staphylococcus epidermidis; test: Expected efficacy of antibiotic agents; conditions: expected efficacy against Staphylococcus epidermidis
[19] = test system: Salmonella typhi; test: Expected efficacy of antibiotic agents; conditions: expected efficacy against Salmonella typhi
[20] = test system: Pseudomonas aeruginosa; test: Expected efficacy of antibiotic agents; conditions: expected efficacy against Pseudomonas aeruginosa
[21] = test system: Rickettsiae; conditions: expected efficacy against Rickettsiae
[22] = test system: Methicillin resistant staph aureus (MRSA); test: Expected efficacy of antibiotic agents; conditions: expected efficacy against Methicillin resistant staph aureus (MRSA)
[23] = test system: Proteus vulgaris; test: Expected efficacy of antibiotic agents; conditions: expected efficacy against Proteus vulgaris
[24] = test system: Moraxella catarrhalis; test: Expected efficacy of antibiotic agents; conditions: expected efficacy against Moraxella catarrhalis
[25] = test system: Enterobacter aerogenes; test: Expected efficacy of antibiotic agents; conditions: expected efficacy against Enterobacter aerogenes
[26] = test system: Proteus mirabilis; test: Expected efficacy of antibiotic agents; conditions: expected efficacy against Proteus mirabilis
[27] = test system: Chlamydia pneumoniae; test: Expected efficacy of antibiotic agents; conditions: expected efficacy against Chlamydia pneumoniae
[28] = test system: Yersinia pestis; conditions: expected efficacy against Yersinia pestis
[29] = test system: Legionella pneumophila; conditions: expected efficacy against Legionella pneumophila
[30] = test system: Neisseria gonorrhoeae; test: Expected efficacy of antibiotic agents; conditions: expected efficacy against Neisseria gonorrhoeae
[31] = test system: Klebsiella pneumoniae; test: Expected efficacy of antibiotic agents; conditions: expected efficacy against Klebsiella pneumoniae
[32] = test system: Serratia marcescens; test: Expected efficacy of antibiotic agents; conditions: expected efficacy against Serratia marcescens
[33] = test system: Providencia stuartii; test: Expected efficacy of antibiotic agents; conditions: expected efficacy against Providencia stuartii
[34] = test system: Providencia rettgeri; test: Expected efficacy of antibiotic agents; conditions: expected efficacy against Providencia rettgeri
[35] = test system: Morganella morganii; test: Expected efficacy of antibiotic agents; conditions: expected efficacy against Morganella morganii
[36] = test system: Shigella boydii; test: Expected efficacy of antibiotic agents; conditions: expected efficacy against Shigella boydii
[37] = test system: Shigella dysenteriae; test: Expected efficacy of antibiotic agents; conditions: expected efficacy against Shigella dysenteriae
[38] = test system: Klebsiella (Calymmatobacterium) granulomatis; test: Expected efficacy of antibiotic agents; conditions: expected efficacy against Klebsiella (Calymmatobacterium) granulomatis
[39] = test system: Streptococcus agalactiae; test: Expected efficacy of antibiotic agents; conditions: expected efficacy against Streptococcus agalactiae
[40] = test system: Enterobacter sakazakii; test: Expected efficacy of antibiotic agents; conditions: expected efficacy against Enterobacter sakazakii
[41] = test system: Viridans group streptococci; test: Expected efficacy of antibiotic agents; conditions: expected efficacy against Viridans group streptococci
[42] = test system: Acinetobacter lwoffii; test: Expected efficacy of antibiotic agents; conditions: expected efficacy against Acinetobacter lwoffii
[43] = test system: Enterococcus faecalis; test: Expected efficacy of antibiotic agents; conditions: expected efficacy against Enterococcus faecalis
[44] = test system: Chlamydia psittaci; conditions: expected efficacy against Chlamydia psittaci
[45] = test system: Clostridium difficile; test: Expected efficacy of antibiotic agents; conditions: expected efficacy against Clostridium difficile
[46] = test system: Chlamydia trachomatis; test: Expected efficacy of antibiotic agents; conditions: expected efficacy against Chlamydia trachomatis
[47] = test system: Streptococcus pyogenes; test: Expected efficacy of antibiotic agents; conditions: expected efficacy against Streptococcus pyogenes
[48] = test system: Enterobacter cloacae; test: Expected efficacy of antibiotic agents; conditions: expected efficacy against Enterobacter cloacae
[49] = test system: Staphylococcus aureus (MSSA); test: Expected efficacy of antibiotic agents; conditions: expected efficacy against Staphylococcus aureus (MSSA)
[50] = test system: Acinetobacter baumannii; test: Expected efficacy of antibiotic agents; conditions: expected efficacy against Acinetobacter baumannii
[51] = test system: Corynebacterium urealyticum; test: Expected efficacy of antibiotic agents; conditions: expected efficacy against Corynebacterium urealyticum
[52] = test system: Streptococcus pneumoniae; test: Expected efficacy of antibiotic agents; conditions: expected efficacy against Streptococcus pneumoniae
[53] = test system: Diphtheroids; test: Expected efficacy of antibiotic agents; conditions: expected efficacy against Diphtheroids
[54] = test system: Mycoplasma pneumoniae; test: Expected efficacy of antibiotic agents; conditions: expected efficacy against Mycoplasma pneumoniae
[55] = test system: Clostridium perfringens; conditions: expected efficacy against Clostridium perfringens
[56] = test system: Bordetella pertussis; test: Expected efficacy of antibiotic agents; conditions: expected efficacy against Bordetella pertussis
[57] = test system: Peptostreptococcus; test: Expected efficacy of antibiotic agents; conditions: expected efficacy against Peptostreptococcus
[58] = test system: Acinetobacter calcoaceticus; test: Expected efficacy of antibiotic agents; conditions: expected efficacy against Acinetobacter calcoaceticus
[59] = test system: Haemophilus ducreyi; test: Expected efficacy of antibiotic agents; conditions: expected efficacy against Haemophilus ducreyi

With O=C(O)c1cn(C2CC2)c2cc(N3CCNCC3)c(F)cc2c1=O [Ciprofloxacin, ciprofloxacin] the Efficacy [1] was “no”, the Efficacy [2] was “yes” and the Efficacy [3] was “yes”. The Efficacy [4] was “no”, the Efficacy [5] was “yes” and the Efficacy [6] was “yes”. The Efficacy [7] was “no”, the Efficacy [8] was “yes” and the Efficacy [9] was “yes”. For the same compound, the Efficacy [10] was “yes”, the Efficacy [11] was “yes” and the Efficacy [12] was “yes”. For the same compound, the Efficacy [13] was “yes”, the Efficacy [14] was “yes” and the Efficacy [15] was “yes”. The Efficacy [16] was “yes”, the Efficacy [17] was “yes” and the Efficacy [18] was “yes”. The Efficacy [19] was “yes”, the Efficacy [20] was “yes” and the Efficacy [21] was “yes”. For the same compound, the Efficacy [22] was “no”, the Efficacy [23] was “yes” and the Efficacy [24] was “yes”. For the same compound, the Efficacy [25] was “yes”, the Efficacy [26] was “yes” and the Efficacy [27] was “yes”. The Efficacy [28] was “yes”, the Efficacy [29] was “yes” and the Efficacy [30] was “yes”. The Efficacy [31] was “yes”, the Efficacy [32] was “yes” and the Efficacy [33] was “yes”. For the same compound, the Efficacy [34] was “yes”, the Efficacy [35] was “yes” and the Efficacy [36] was “yes”. For the same compound, the Efficacy [37] was “yes”.
NC[C@H]1O[C@H](O[C@H]2[C@H](O)[C@@H](O[C@H]3O[C@H](CO)[C@@H](O)[C@H](N)[C@H]3O)[C@H](N)C[C@@H]2N)[C@H](N)C[C@@H]1O [Tobramycin, tobramycin] was tested, and the Efficacy [38] was “yes”, the Efficacy [39] was “no” and the Efficacy [1] was “no”. For the same compound, the Efficacy [40] was “yes”, the Efficacy [2] was “no” and the Efficacy [41] was “no”. For the same compound, the Efficacy [4] was “no”, the Efficacy [5] was “yes” and the Efficacy [6] was “yes”. For the same compound, the Efficacy [42] was “no”, the Efficacy [43] was “no” and the Efficacy [44] was “no”. The Efficacy [7] was “no”, the Efficacy [8] was “yes” and the Efficacy [45] was “no”. For the same compound, the Efficacy [10] was “yes”, the Efficacy [12] was “yes” and the Efficacy [13] was “yes”. The Efficacy [46] was “no”, the Efficacy [14] was “yes” and the Efficacy [15] was “yes”. The Efficacy [47] was “no”, the Efficacy [16] was “no” and the Efficacy [17] was “yes”. The Efficacy [18] was “no”, the Efficacy [48] was “yes” and the Efficacy [20] was “yes”. The Efficacy [22] was “no”, the Efficacy [49] was “no” and the Efficacy [23] was “yes”. For the same compound, the Efficacy [24] was “yes”, the Efficacy [25] was “yes” and the Efficacy [26] was “yes”. The Efficacy [27] was “no”, the Efficacy [28] was “yes” and the Efficacy [29] was “no”. For the same compound, the Efficacy [50] was “no”, the Efficacy [51] was “no” and the Efficacy [30] was “no”. For the same compound, the Efficacy [52] was “no”, the Efficacy [53] was “no” and the Efficacy [54] was “no”. The Efficacy [31] was “yes”, the Efficacy [55] was “no” and the Efficacy [56] was “no”. The Efficacy [32] was “yes”, the Efficacy [57] was “no” and the Efficacy [58] was “no”. For the same compound, the Efficacy [36] was “yes”, the Efficacy [37] was “yes” and the Efficacy [59] was “yes”.
